The source of these data is BindingDB's records for doi:10.1021/jm060133g (Pfizer, 2006).

Some results are limits rather than exact numbers.

One may read the IC50 as the concentration that gives 50% inhibition.

A short description of assay [1]: Inhibition of dog ACE.
Assay [2] concerns the target Neprilysin (Canis familiaris). The experiment in a line: Inhibition of dog NEP.

Regarding `CCCC(CC1(C(=O)Nc2ccc(OC)nn2)CCCC1)C(=O)O` (centres undefined) [2-((1-((6-methoxypyridazin-3-yl)carbamoyl)cyclopentyl)methyl)pentanoic acid], in assay [1], the IC50 is above 3 µM.

As to `CCCC(CC1(C(=O)N[C@H]2CC[C@@H](C(=O)N(C)C)CC2)CCCC1)C(=O)O` (stereo partly drawn) [cis-2-((1-((4-(dimethylcarbamoyl)cyclohexyl)carbamoyl)cyclopentyl)methyl)pentanoic acid], in assay [1], the IC50 is above 3 µM.

Regarding `CCCC(CC1(C(=O)Nc2ccc(=O)n(Cc3ccccc3)c2)CCCC1)C(=O)O` (centres undefined) [2-((1-((1-benzyl-6-oxo-1,6-dihydropyridin-3-yl)carbamoyl)cyclopentyl)methyl)pentanoic acid], the half-inhibitory concentration (IC50) in assay [1] is above 3 µM; in assay [2], 0.313 µM.

Take `CCCC(CC1(C(=O)N[C@H]2CC[C@@H](C(N)=O)CC2)CCCC1)C(=O)O` (stereo partly drawn) [cis-2-((1-((4-carbamoylcyclohexyl)carbamoyl)cyclopentyl)methyl)pentanoic acid]: the IC50 in assay [1] is above 3 µM; in assay [2], 0.15 µM.

For `CCCCc1ccnc(NC(=O)C2(CC(CCC)C(=O)O)CCCC2)c1` (centres undefined) [2-((1-((4-butylpyridin-2-yl)carbamoyl)cyclopentyl)methyl)pentanoic acid], the IC50 in assay [1] is above 3 µM; in assay [2], 0.184 µM.

In the case of `CCCC(CC1(C(=O)Nc2nnc(CC(C)C)s2)CCCC1)C(=O)O` (centres undefined) [2-((1-((5-isobutyl-1,3,4-thiadiazol-2-yl)carbamoyl)cyclopentyl)methyl)pentanoic acid], the results for the IC50 in assay [1] and in assay [2] were above 3 µM and 0.124 µM, respectively.

Take `CCCC(CC1(C(=O)N[C@@H]2CCN(Cc3ccccc3)C2)CCCC1)C(=O)O` (stereo partly drawn) [2-((1-(((R)-1-benzylpyrrolidin-3-yl)carbamoyl)cyclopentyl)methyl)pentanoic acid]: the IC50 in assay [1] was above 3 µM; in assay [2], 1.06 µM.

Turning to `CCc1nnc(NC(=O)C2(CC(CCc3ccccc3)C(=O)O)CCCC2)s1` (centres undefined) [2-((1-((5-ethyl-1,3,4-thiadiazol-2-yl)carbamoyl)cyclopentyl)methyl)-4-phenylbutanoic acid], the values for the IC50 in assay [1] and in assay [2] were above 3 µM and 0.046 µM, respectively.

With `CCCC(CC1(C(=O)Nc2cccc(CC)n2)CCCC1)C(=O)O` (centres undefined) [2-((1-((6-ethylpyridin-2-yl)carbamoyl)cyclopentyl)methyl)pentanoic acid], the 50% inhibitory concentration (IC50) in assay [2] is above 2 µM.

Take `CCCCC(CC1(C(=O)Nc2nnc(CC)s2)CCCC1)C(=O)O` (centres undefined) [2-((1-((5-ethyl-1,3,4-thiadiazol-2-yl)carbamoyl)cyclopentyl)methyl)hexanoic acid]: the half-maximal inhibitory concentration (IC50) in assay [1] was above 3 µM.

Compound `CCc1nnc(NC(=O)C2(CC(CCC(C)C)C(=O)O)CCCC2)s1` (centres undefined) [2-((1-((5-ethyl-1,3,4-thiadiazol-2-yl)carbamoyl)cyclopentyl)methyl)-5-methylhexanoic acid] had an IC50 in assay [1] above 3 µM.

With `CCCC(CC1(c2nnc(Cc3ccccc3)o2)CCCC1)C(=O)O` (centres undefined) [2-((1-(5-benzyl-1,3,4-oxadiazol-2-yl)cyclopentyl)methyl)pentanoic acid], the figures for the IC50 in assay [1] and in assay [2] were above 3 µM and 3.1 µM, respectively.

As to `CCCC(CC1(C(=O)NC2Cc3ccccc3C2)CCCC1)C(=O)O` (centres undefined) [2-((1-((2,3-dihydro-1H-inden-2-yl)carbamoyl)cyclopentyl)methyl)pentanoic acid], the IC50 in assay [1] is above 3 µM.

`CCCC(CC1(C(=O)Nc2ccccn2)CCCC1)C(=O)O` (centres undefined) [2-((1-(pyridin-2-ylcarbamoyl)cyclopentyl)methyl)pentanoic acid] had an IC50 in assay [1] above 3 µM.

Compound `CCCC(CC1(C(=O)N[C@@H]2CCCC[C@@H]2CCC)CCCC1)C(=O)O` (stereo partly drawn) [2-((1-(((1R,2S)-2-propylcyclohexyl)carbamoyl)cyclopentyl)methyl)pentanoic acid] registered a half-inhibitory concentration (IC50) in assay [1] above 3 µM.

The compound `CCC[C@@H](CC1(C(=O)Nc2nnc(C)s2)CCCC1)C(=O)O` [(S)-2-((1-((5-methyl-1,3,4-thiadiazol-2-yl)carbamoyl)cyclopentyl)methyl)pentanoic acid] had a half-maximal inhibitory concentration (IC50) in assay [1] above 5 µM.

As to `CCC[C@H](CC1(C(=O)NC2(CO)Cc3ccccc3C2)CCCC1)C(=O)O` [(R)-2-((1-((2-(hydroxymethyl)-2,3-dihydro-1H-inden-2-yl)carbamoyl)cyclopentyl)methyl)pentanoic acid], the 50% inhibitory concentration (IC50) in assay [1] is above 3 µM.

On to `CCCC(CC1(C(=O)NC2(CO)CCCC2)CCCC1)C(=O)O` (centres undefined) [2-((1-((1-(hydroxymethyl)cyclopentyl)carbamoyl)cyclopentyl)methyl)pentanoic acid], for which the 50% inhibitory concentration (IC50) in assay [1] was above 3 µM; in assay [2] it was 1.71 µM.

`CCCC(CC1(C(=O)N[C@@H]2CCCC[C@@H]2Cc2ccccc2)CCCC1)C(=O)O` (stereo partly drawn) [2-((1-(((1R,2R)-2-benzylcyclohexyl)carbamoyl)cyclopentyl)methyl)pentanoic acid]: the values for the IC50 in assay [1] and in assay [2] were above 3 µM and 0.195 µM, respectively.

Regarding `CCCC(CC1(C(=O)NCc2ccc3c(c2)OCO3)CCCC1)C(=O)O` (centres undefined) [2-((1-((benzo[d][1,3]dioxol-5-ylmethyl)carbamoyl)cyclopentyl)methyl)pentanoic acid], the half-inhibitory concentration (IC50) in assay [1] is above 3 µM.

Compound `CCCC(CC1(C(=O)Nc2nnc(Cc3ccccc3)s2)CCCC1)C(=O)O` (centres undefined) [2-((1-((5-benzyl-1,3,4-thiadiazol-2-yl)carbamoyl)cyclopentyl)methyl)pentanoic acid] showed a 50% inhibitory concentration (IC50) in assay [1] above 3 µM.

`CCCC(CC1(C(=O)NC2(CO)Cc3ccccc3C2)CCCC1)C(=O)O` (racemic) [rac-2-((1-((2-(hydroxymethyl)-2,3-dihydro-1H-inden-2-yl)carbamoyl)cyclopentyl)methyl)pentanoic acid] had an IC50 in assay [1] above 3 µM.

As to `CCCC(CC1(c2nnc(-c3ccc(=O)n(Cc4ccccc4)c3)o2)CCCC1)C(=O)O` (centres undefined) [2-((1-(5-(1-benzyl-6-oxo-1,6-dihydropyridin-3-yl)-1,3,4-oxadiazol-2-yl)cyclopentyl)methyl)pentanoic acid], the IC50 in assay [1] is above 3 µM; in assay [2], 1.14 µM.

On to `CCc1nnc(NC(=O)C2(CCC(=O)O)CCCC2)s1` [3-(1-((5-ethyl-1,3,4-thiadiazol-2-yl)carbamoyl)cyclopentyl)propanoic acid], for which the half-maximal inhibitory concentration (IC50) in assay [1] was above 3 µM; in assay [2], 0.237 µM.

In turn, `CCCC(CC1(C(=O)Nc2nnc(CC3CC3)s2)CCCC1)C(=O)O` (centres undefined) [2-((1-((5-(cyclopropylmethyl)-1,3,4-thiadiazol-2-yl)carbamoyl)cyclopentyl)methyl)pentanoic acid] returned an IC50 in assay [1] above 3 µM.

Compound `CCCC(CC1(C(=O)Nc2cc(C)ccn2)CCCC1)C(=O)O` (centres undefined) [2-((1-((4-methylpyridin-2-yl)carbamoyl)cyclopentyl)methyl)pentanoic acid] displayed an IC50 in assay [2] of 0.63 µM.

In assay [1], `CCC[C@H](CC1(C(=O)Nc2nnc(CC)s2)CCCC1)C(=O)O` [(R)-2-((1-((5-ethyl-1,3,4-thiadiazol-2-yl)carbamoyl)cyclopentyl)methyl)pentanoic acid] displayed a half-inhibitory concentration (IC50) above 3 µM.

Regarding `CCCC(CC1(C(=O)N[C@H](CO)Cc2ccccc2)CCCC1)C(=O)O` (stereo partly drawn) [2-((1-(((S)-1-hydroxy-3-phenylpropan-2-yl)carbamoyl)cyclopentyl)methyl)pentanoic acid], the IC50 was above 3 µM in assay [1] and 0.384 µM in assay [2].

Compound `CCCC(CC1(C(=O)Nc2nnc(CC)s2)CCCC1)C(=O)O` (racemic) [rac-2-((1-((5-ethyl-1,3,4-thiadiazol-2-yl)carbamoyl)cyclopentyl)methyl)pentanoic acid] came in with an IC50 in assay [1] above 3 µM.

As to `CCCC(CC1(NC(=O)c2ccc(=O)n(Cc3ccccc3)c2)CCCC1)C(=O)O` (centres undefined) [2-((1-(1-benzyl-2-oxo-1,2-dihydropyridine-5-carboxamido)cyclopentyl)methyl)pentanoic acid], the IC50 in assay [2] is above 3 µM.

For the compound `CCCC(CC1(C(=O)NCCc2ccc(Cl)cc2)CCCC1)C(=O)O` (centres undefined) [2-((1-((4-chlorophenethyl)carbamoyl)cyclopentyl)methyl)pentanoic acid], in assay [2], the concentration for half-maximal inhibition (IC50) is above 2 µM.

`CCCC(CC1(C(=O)Nc2nnc(-c3ccccc3)s2)CCCC1)C(=O)O` (centres undefined) [2-((1-((5-phenyl-1,3,4-thiadiazol-2-yl)carbamoyl)cyclopentyl)methyl)pentanoic acid] displayed a half-maximal inhibitory concentration (IC50) in assay [1] above 3 µM.

In assay [1], `CCCC(CC1(C(=O)NCc2nnc(C)s2)CCCC1)C(=O)O` (centres undefined) [2-((1-(((5-methyl-1,3,4-thiadiazol-2-yl)methyl)carbamoyl)cyclopentyl)methyl)pentanoic acid] gave a 50% inhibitory concentration (IC50) above 3 µM.

Take `CCCC(CC1(C(=O)Nc2ncccc2CC)CCCC1)C(=O)O` (centres undefined) [2-((1-((3-ethylpyridin-2-yl)carbamoyl)cyclopentyl)methyl)pentanoic acid]: half-maximal inhibition in assay [2] (IC50) required 1.71 µM.

Compound `CCCC(CC1(C(=O)NC2CCCC(C(=O)N(C)C)C2)CCCC1)C(=O)O` (centres undefined) [2-((1-((3-(dimethylcarbamoyl)cyclohexyl)carbamoyl)cyclopentyl)methyl)pentanoic acid] gave an IC50 in assay [1] above 3 µM.

Regarding `CCC[C@H](CC1(C(=O)Nc2nnc(C)s2)CCCC1)C(=O)O` [(R)-2-((1-((5-methyl-1,3,4-thiadiazol-2-yl)carbamoyl)cyclopentyl)methyl)pentanoic acid], the half-inhibitory concentration (IC50) in assay [1] was above 3 µM.

In turn, `CCC[C@@H](CC1(C(=O)NC2(CO)Cc3ccccc3C2)CCCC1)C(=O)O` [(S)-2-((1-((2-(hydroxymethyl)-2,3-dihydro-1H-inden-2-yl)carbamoyl)cyclopentyl)methyl)pentanoic acid] displayed an IC50 in assay [1] above 3 µM.

As to `CCCC(CC1(C(=O)N[C@H](C)c2ccccc2)CCCC1)C(=O)O` (stereo partly drawn) [2-((1-(((R)-1-phenylethyl)carbamoyl)cyclopentyl)methyl)pentanoic acid], the IC50 in assay [1] was above 3 µM.

`CCCC(CC1(C(=O)Nc2nnc(C)s2)CCCC1)C(=O)O` (racemic) [rac-2-((1-((5-methyl-1,3,4-thiadiazol-2-yl)carbamoyl)cyclopentyl)methyl)pentanoic acid]: the IC50 in assay [1] was above 3 µM.

The compound `CCCC(CC1(C(=O)Nc2nncs2)CCCC1)C(=O)O` (centres undefined) [2-((1-((1,3,4-thiadiazol-2-yl)carbamoyl)cyclopentyl)methyl)pentanoic acid] showed an IC50 in assay [1] above 3 µM.

On to `CCCC(CC1(C(=O)Nc2cn(CC)nn2)CCCC1)C(=O)O` (centres undefined) [2-((1-((1-ethyl-1H-1,2,3-triazol-4-yl)carbamoyl)cyclopentyl)methyl)pentanoic acid], for which the half-inhibitory concentration (IC50) in assay [1] was above 3 µM.

`CCC[C@@H](CC1(C(=O)Nc2nnc(CC)s2)CCCC1)C(=O)O` [(S)-2-((1-((5-ethyl-1,3,4-thiadiazol-2-yl)carbamoyl)cyclopentyl)methyl)pentanoic acid] had an IC50 in assay [1] above 3 µM.
